US11891360B2, “Glycosylated psilocybin derivatives and methods of using” (Enveric Biosciences Canada Inc., priority 2020, dated 2024)

Tests used:
5-HT2A receptor = 5-HT2A receptor (Homo sapiens, UniProt P28223); test: Calcium mobilization (Fluo-8) assay in CHO-K1 cells stably expressing 5-HT2A (+5-HT2A); type: cell-based
Experimental: Briefly, vials with cells were removed from the liquid nitrogen and thawed quickly in 37° C. water bath.

[1] = system: CHO-K1/Galpha15 cells (−5-HT2A); test: Calcium mobilization (Fluo-8) assay in control cells lacking 5-HT2A (−5-HT2A); type: cell-based, Chinese Hamster; conditions: CHO-K1/Galpha15 control cells lacking 5-HT2A
From the text: Cell lines for pharmacology assays. CHO-K1/Galpha15 (GenScript, M00257) (−5-HT2A) and CHO-K1/5-HT2A (GenScript, M00250) (+5-HT2A) cells lines were used in both toxicology/growth inhibition (MTT) and calcium release assays. Briefly, CHO-K1/Galpha15 is a control cell line that constitutively expresses Galpha15 which is a promiscuous Gq protein. It is engineered as a host cell, allowing transfected receptor(s) to signal through the Gq signal transduction pathway and mobilize intracellular calcium from the endoplasmic reticulum (ER). These control cells lack any transgene encoding 5-HT2A receptors, thus preventing calcium mobilization in response to 5-HT2A activation. Conversely, CHO-K1/5-HT2A cells stably express 5-HT2A receptor in the CHO-K1 host background. This design enables Gq-11 expressed in CHO-K1 cells to mobilize intracellular calcium changes when 5-HT2A receptors are activated by ligands.
Cell lines were maintained in Ham's F12 media plus 10% FBS in the presence of 100 ug/ml hygromycin for CHO-K1/Ga15 or 400 ug/ml G418 for CHO-K1/5-HT2A unless indicated otherwise for specific assays. Cell maintenance was carried out as recommended by the cell supplier. Briefly, vials with cells were removed from the liquid nitrogen and thawed quickly in 37° C. water bath. […]
Increase in cytosolic calcium concentration by 5-HT2A activation. Changes in intracellular calcium concentration due to the treatment with assay compounds was measured using Fluo-8 dye (Abcam, #ab112129) according to the manufacturer's instructions. […] Fluorescence (ex 490 nm/em 525 nm) obtained after the addition of molecules was expressed relative to values obtained before addition of the molecules (relative Fluo-8 fluorescence=Fmax/F0, where Fmax=maximum fluorescence and F0=baseline fluorescence). Fluorescence intensities were measured using a Spectramax ID3 plate reader (www.moleculardevices.com). Relative fluorescence (RFU) was plotted with respected to time (seconds) illustrating time-dependent calcium flux. […] The Example compound (Ill) was then evaluated.

Chain of 5-HT2A receptor (P28223 whole entry): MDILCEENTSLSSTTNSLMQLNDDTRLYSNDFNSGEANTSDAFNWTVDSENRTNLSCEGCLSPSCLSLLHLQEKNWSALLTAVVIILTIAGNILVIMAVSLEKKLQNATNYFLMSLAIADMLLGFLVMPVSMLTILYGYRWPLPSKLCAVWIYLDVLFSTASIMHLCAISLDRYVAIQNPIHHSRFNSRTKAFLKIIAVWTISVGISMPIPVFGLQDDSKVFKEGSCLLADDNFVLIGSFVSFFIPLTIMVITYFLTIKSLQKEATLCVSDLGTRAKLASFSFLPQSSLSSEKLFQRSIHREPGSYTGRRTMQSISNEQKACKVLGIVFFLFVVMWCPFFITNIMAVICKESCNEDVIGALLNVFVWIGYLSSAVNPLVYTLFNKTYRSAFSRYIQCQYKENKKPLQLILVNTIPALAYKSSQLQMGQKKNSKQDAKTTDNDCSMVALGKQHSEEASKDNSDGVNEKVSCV

Compound: NCCc1c[nH]c2cccc(O[C@@H]3OC(CO)[C@@H](O)C(O)C3O)c12 (stereo partly drawn) [III, 4-O-β-D-glucopyranosyltryptamine]
- dose dependence of calcium flux response (5-HT2A receptor; +5-HT2A cells, 0.001-100 μM): response increased with dosage
- calcium flux response in −5-HT2A cells [1]: did not exhibit a response

Compound: NCCc1c[nH]c2cccc(O[C@@H]3OC(CO)[C@H](O)C(O)C3O)c12 (stereo partly drawn) [V, 4-O-β-D-galactopyranosyltryptamine]
- dose dependence of calcium flux response (5-HT2A receptor; +5-HT2A cells, 0.001-100 μM): response increased with dosage
- time to peak of intracellular calcium flux (5-HT2A receptor; +5-HT2A cells, 0.001-100 μM, relative Fluo-8 fluorescence vs time): under 60 seconds
- calcium flux response in −5-HT2A cells [1]: did not exhibit a response

Compound: CN(C)CCc1c[nH]c2cccc(O[C@@H]3OC(CO)[C@H](O)C(O)C3O)c12 (stereo partly drawn) [VI, N,N-dimethyl-4-O-β-D-galactopyranosyltryptamine]
- EC50 (5-HT2A receptor; CHO-K1/5-HT2A (+5-HT2A) cells, four parameter logistic curve fitting, GraphPad Prism, read-out: EC50 of relative Fluo-8 fluorescence (calcium mobilization)): 3.81 µM

Compound: CN(C)CCc1c[nH]c2cccc(O)c12 [psilocin, reference compound]
- dose dependence of calcium flux response (5-HT2A receptor; +5-HT2A cells, 0.001-100 μM): response increased with dosage
- calcium flux response in −5-HT2A cells [1]: did not exhibit a response
